In article PMC10605370 (Biomolecules, 2023):

Columns and labels:
other GRK isoforms = conditions: selectively inhibits the GRK2/3 subfamily; cited from earlier work
PO4-null D2R = PO4-null D2R (Rattus norvegicus, UniProt P61169); experiment: β-arrestin2 recruitment BRET assay, PO4-null D2R; assay type: cell-based; conditions: dose-dependent (Figure 4D)
Human D2RL [1] = biological target: T1, Human D2RL (Homo sapiens, UniProt P14416); experiment: GRK2-GFP recruitment BRET assay (D2R–GRK2 interactions); assay type: cell-based; set-up: expressed in transfected cells; host or cells: HEK293 (parental or GRK knockout lines); conditions: dose-dependent (Figure 3C)
T1 sequence (P14416 whole entry): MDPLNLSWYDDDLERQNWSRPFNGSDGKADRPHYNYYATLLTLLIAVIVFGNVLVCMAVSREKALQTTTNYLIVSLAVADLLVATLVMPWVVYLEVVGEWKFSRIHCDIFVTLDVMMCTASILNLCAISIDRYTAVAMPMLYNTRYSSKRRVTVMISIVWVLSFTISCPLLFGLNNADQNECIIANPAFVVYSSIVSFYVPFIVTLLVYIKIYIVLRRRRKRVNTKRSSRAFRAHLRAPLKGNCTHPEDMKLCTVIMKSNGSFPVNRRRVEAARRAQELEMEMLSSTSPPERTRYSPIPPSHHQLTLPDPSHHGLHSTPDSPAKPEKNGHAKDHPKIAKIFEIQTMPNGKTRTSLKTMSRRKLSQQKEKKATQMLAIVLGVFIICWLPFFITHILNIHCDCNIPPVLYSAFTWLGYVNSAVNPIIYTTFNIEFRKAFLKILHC

Human D2RL [2] = biological target: T1, Human D2RL; experiment: Go heterotrimer activation BRET assay; assay type: cell-based; set-up: expressed in transfected cells; host or cells: HEK293 (parental or GRK knockout lines); conditions: Cmpd101 treatment of HEK293 cells
Description: HEK293 cells were transiently transfected with the Gαo1-Rluc8 (35 mm plate: 0.1 μg; 100 mm plate: 0.5 μg), Gβ1 (35 mm plate: 0.9 μg; 100 mm plate: 4.5 μg), and Gγ2-mVenus (35 mm plate: 1 μg; 100 mm plate: 5 μg) constructs and the indicated untagged D2R construct (35 mm plate: 1 μg; 100 mm plate: 5 μg). […] Cells were then plated in 96-well white solid bottom plates (Greiner, Monroe, NC, USA) and incubated at room temperature for 45 min.

Human D2RL [3] = biological target: T1, Human D2RL; experiment: β-arrestin2 recruitment BRET assay; assay type: cell-based; conditions: dose-dependent; maximally effective concentrations (10–100 µM)
D2R–GRK2 interactions = test system: D2R–GRK2 interactions; set-up: method as in Pack et al., 2018 [21]; conditions: similar BRET assay; ref Pack et al., 2018 [21]; cited from earlier work
Human D2RL [4] = biological target: T1, Human D2RL; experiment: LYN BRET receptor internalization assay; assay type: cell-based; set-up: expressed in transfected cells; host or cells: HEK293 (parental or GRK knockout lines); conditions: dose-dependent; maximally effective concentration of 100 µM
Description: HEK293 cells were transiently transfected with the indicated D2R-Rluc8 (35 mm plate: 0.1 μg; 100 mm plate: 0.5 μg) and LYN-rGFP (35 mm plate: 1 μg; 100 mm plate: 5 μg) constructs and the indicated GRK construct (35 mm plate: 1 μg; 100 mm plate: 5 μg) or pcDNA control.

[5] = biological target: phosphorylation-null (PO4-null) rat D2 dopamine receptor, long isoform, fused to Rluc8 (rat) (UniProt P61169); experiment: FRET or BRET; GRK2 recruitment BRET in live HEK293 cells transfected with D2R-Rluc8 (donor) and GRK2-rGFP (acceptor), with or without compound 101; DPBS with 200 µM sodium metabisulphite, room temperature, 2 µM Prolume Purple; dopamine for 5 min
Sequence of phosphorylation-null (PO4-null) rat D2 dopamine receptor, long isoform, fused to Rluc8 (rat) (P61169 whole entry, the tested form may be a part, canonical isoform): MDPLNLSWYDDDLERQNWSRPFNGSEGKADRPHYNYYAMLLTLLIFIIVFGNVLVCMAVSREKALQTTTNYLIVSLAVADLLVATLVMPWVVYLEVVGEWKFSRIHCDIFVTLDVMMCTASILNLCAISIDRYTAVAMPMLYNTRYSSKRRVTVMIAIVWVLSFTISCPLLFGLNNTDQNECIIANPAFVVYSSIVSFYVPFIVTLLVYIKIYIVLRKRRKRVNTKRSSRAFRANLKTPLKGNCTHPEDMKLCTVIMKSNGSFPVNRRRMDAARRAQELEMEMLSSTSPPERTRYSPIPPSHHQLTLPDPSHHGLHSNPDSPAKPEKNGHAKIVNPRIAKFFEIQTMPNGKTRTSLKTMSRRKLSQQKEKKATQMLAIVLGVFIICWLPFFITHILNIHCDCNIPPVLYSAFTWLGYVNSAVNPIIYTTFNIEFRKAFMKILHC

[6] = biological target: phosphorylation-null (PO4-null) rat D2 dopamine receptor, long isoform, fused to Rluc8 (rat) (UniProt P61169)

Sequence of GRK2-rGFP (P25098 whole entry): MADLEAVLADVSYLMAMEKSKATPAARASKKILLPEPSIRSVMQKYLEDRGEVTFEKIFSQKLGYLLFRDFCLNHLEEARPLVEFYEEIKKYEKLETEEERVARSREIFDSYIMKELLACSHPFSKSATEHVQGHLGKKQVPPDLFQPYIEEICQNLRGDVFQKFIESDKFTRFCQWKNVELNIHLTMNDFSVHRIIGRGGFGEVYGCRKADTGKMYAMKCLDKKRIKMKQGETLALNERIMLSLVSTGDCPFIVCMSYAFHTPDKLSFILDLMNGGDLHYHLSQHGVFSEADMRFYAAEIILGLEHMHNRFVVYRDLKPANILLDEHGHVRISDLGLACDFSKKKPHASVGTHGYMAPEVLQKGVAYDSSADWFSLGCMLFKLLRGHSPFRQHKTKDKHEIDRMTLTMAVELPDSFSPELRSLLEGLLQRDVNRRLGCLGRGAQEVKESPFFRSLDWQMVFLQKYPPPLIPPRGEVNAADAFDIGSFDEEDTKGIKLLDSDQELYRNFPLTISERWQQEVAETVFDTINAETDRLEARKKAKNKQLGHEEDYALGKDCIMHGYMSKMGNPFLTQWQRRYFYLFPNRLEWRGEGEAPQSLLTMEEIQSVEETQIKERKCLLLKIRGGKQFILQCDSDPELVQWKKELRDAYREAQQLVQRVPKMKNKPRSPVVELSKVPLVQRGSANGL
Sequence of β-arrestin2-mVenus (P32121 whole entry): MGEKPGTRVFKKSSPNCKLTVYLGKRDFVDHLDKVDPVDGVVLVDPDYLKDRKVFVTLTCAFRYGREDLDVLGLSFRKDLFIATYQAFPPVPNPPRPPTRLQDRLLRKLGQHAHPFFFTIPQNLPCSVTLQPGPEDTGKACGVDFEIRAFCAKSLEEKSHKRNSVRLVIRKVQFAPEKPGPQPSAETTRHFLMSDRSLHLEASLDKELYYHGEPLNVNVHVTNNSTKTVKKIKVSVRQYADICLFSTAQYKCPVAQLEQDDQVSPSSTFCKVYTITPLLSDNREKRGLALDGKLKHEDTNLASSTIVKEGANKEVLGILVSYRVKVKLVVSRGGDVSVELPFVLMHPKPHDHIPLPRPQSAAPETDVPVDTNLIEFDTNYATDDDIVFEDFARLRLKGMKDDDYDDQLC
Sequence of PO4-null D2R (P61169 whole entry): as the sequence (P61169 whole entry, the tested form may be a part, canonical isoform) above

## Cn1c(CNc2cccc(C(=O)NCc3ccccc3C(F)(F)F)c2)nnc1-c1ccncc1 [Cmpd101]
Other GRK isoforms
  affinity for other GRK isoforms: lacks affinity
PO4-null D2R
  decrease of β-arrestin2 recruitment to the phospho-null D2R: did not completely eliminate
Human D2RL [1]
  inhibition of GRK2–D2R interactions: unable to completely block
Human D2RL [2]
  effect on D2R signaling through G proteins (Go activation BRET assay): does not alter
Human D2RL [3]
  inhibition of dopamine-stimulated β-arrestin2 recruitment to the D2R: unable to completely inhibit
D2R–GRK2 interactions
  effect on D2R–GRK2 interactions: no effect
Human D2RL [4]
  inhibition of dopamine-stimulated D2R internalization: completely block

## GRK2-rGFP (from UniProt P25098 1-689) (enzyme)
[5]
  Emax of dopamine-stimulated BRET (% of WT D2R): 102 % of WT D2R

## β-arrestin2-mVenus (from UniProt P32121 1-409) (natural protein)
[6]
  dopamine-stimulated D2R internalization in HEK293 cells (LYN BRET), Emax as a percentage of WT D2R (β-arrestin not transfected in this assay): 100 % of WT D2R
